In patent US12590066B2, “Fused-heterocyclyl-carbonohydrazonoyl dicyanide compounds and use thereof” (KOREA INSTITUTE OF SCIENCE AND TECHNOLOGY, priority 2020, dated 2026):

How the values were obtained:
CYP2D6 = biological target: T1, CYP2D6 (Homo sapiens, UniProt P10635); test: Inhibitory effect on CYP coenzyme activity, human liver microsomes; type: in vitro ADME; details: 10 μM compound, human liver microsomes 0.25 mg/mL, substrate dextromethorphan, 15 minutes
T1 construct: human liver microsomes (0.25 mg/mL); from tissue; host or cells: human liver microsomes
T1 sequence (P10635 whole entry): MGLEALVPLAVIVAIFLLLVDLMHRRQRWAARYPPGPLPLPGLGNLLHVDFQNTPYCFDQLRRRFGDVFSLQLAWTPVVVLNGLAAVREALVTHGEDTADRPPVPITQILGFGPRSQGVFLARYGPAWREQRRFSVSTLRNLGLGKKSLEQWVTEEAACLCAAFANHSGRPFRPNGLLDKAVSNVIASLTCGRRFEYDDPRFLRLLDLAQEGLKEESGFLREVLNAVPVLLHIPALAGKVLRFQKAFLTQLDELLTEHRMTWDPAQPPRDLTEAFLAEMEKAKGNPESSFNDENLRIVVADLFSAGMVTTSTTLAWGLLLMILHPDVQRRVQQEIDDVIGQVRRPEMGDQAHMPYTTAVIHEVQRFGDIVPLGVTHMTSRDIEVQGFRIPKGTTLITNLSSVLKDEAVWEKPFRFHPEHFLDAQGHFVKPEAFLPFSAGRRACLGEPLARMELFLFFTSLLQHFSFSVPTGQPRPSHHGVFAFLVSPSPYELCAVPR
In short: (§1)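 Human liver microsomes (0.25 mg/mL, pH 7.4 phosphate) with compound at 0 or 10 μM and substrate cocktail (50 μM phenacetin, 10 μM diclofenac, 100 μM S-mephenytoin, 5 μM dextromethorphan), preincubated 5 min then 15 min at 37° C with NADPH. Metabolites quantified by LC-MS/MS (MRM); values are % activity versus untreated control.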

CYP2C19 = biological target: T2, CYP2C19 (Homo sapiens, UniProt P33261); test: as above; type: in vitro ADME; details: 10 μM compound, human liver microsomes 0.25 mg/mL, substrate S-mephenytoin, 15 minutes
T2 construct: human liver microsomes (0.25 mg/mL); from tissue; host or cells: human liver microsomes
T2 sequence (P33261 whole entry): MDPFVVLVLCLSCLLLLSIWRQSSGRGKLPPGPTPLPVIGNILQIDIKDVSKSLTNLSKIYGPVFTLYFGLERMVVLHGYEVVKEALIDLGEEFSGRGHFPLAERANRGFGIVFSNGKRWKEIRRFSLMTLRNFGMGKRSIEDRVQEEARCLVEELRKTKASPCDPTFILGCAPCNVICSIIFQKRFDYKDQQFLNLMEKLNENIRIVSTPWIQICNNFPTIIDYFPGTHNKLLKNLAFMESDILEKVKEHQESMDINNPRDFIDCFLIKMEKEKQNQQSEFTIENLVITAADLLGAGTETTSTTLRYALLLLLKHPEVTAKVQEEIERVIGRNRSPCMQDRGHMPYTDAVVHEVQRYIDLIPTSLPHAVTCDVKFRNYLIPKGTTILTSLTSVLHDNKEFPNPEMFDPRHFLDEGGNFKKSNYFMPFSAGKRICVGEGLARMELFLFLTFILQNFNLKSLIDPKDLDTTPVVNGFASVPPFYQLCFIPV
In short: as §1

CYP1A2 = biological target: T3, CYP1A2 (Homo sapiens, UniProt P05177); test: as above; type: in vitro ADME; details: 10 μM compound, human liver microsomes 0.25 mg/mL, substrate phenacetin, 15 minutes
T3 construct: human liver microsomes (0.25 mg/mL); from tissue; host or cells: human liver microsomes
T3 sequence (P05177 1-516): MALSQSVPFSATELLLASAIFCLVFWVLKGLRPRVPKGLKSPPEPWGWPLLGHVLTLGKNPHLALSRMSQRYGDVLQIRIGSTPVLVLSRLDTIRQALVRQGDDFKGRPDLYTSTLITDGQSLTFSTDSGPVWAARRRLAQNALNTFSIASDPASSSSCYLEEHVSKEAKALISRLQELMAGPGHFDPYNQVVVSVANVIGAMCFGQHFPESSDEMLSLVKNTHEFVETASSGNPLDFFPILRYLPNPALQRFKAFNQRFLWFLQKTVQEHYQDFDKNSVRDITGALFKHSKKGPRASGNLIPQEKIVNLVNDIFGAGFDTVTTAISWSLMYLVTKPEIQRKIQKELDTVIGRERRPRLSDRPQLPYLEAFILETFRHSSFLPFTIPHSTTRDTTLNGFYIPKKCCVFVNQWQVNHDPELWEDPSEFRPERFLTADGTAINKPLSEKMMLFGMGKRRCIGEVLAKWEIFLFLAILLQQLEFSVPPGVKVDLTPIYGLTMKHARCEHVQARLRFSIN
In short: as §1

Tau-BiFC cells = test: Cell viability (stained nuclei count) in Tau-BiFC cells; type: cell-based; details: 10 μM compound, 48 hours; Forskolin-only group = 100% cell viability
Description: In order to select novel tau protein aggregation-inhibiting substances, tau-BiFC cell model, in which formation of tau oligomers in living cells is easily observed, was used. Tau-BiFC cells were aliquoted into a 384-well plate. On the next day, the cells were treated with each of the compounds prepared according to Examples 1 to 57 at concentrations of 1 μM, 3 μM, and 10 μM, together with Forskolin (at a treatment concentration of 30 μM), which is a compound inducing tau protein aggregation by activating tau phosphorylase PKA. After 48 hours, nuclei in the cells were stained using Hoechst (at a treatment concentration of 2 μg/mL), and BiFC fluorescence intensity was automatically measured using Operetta (PerkinElmer) to count stained nuclei in each well out of the entire well plate. The group treated only with Forskolin, which induces tau protein aggregation, was set to a reference point of a 100% tau protein-aggregated state, and the effects of the compounds were confirmed using the equation “BiFC fluorescence intensity due to compound synthesized according to embodiment of present invention/(fluorescence intensity of control group treated only with Forskolin inducing tau protein aggregation−fluorescence intensity of untreated control group)×100”. Furthermore, the degree of cytotoxicity induced by the newly synthesized compound was also measured based on the 100% cell viability of the group treated only with Forskolin as a reference, and the cytotoxicity value of each compound was calculated using the equation “(number of stained nuclei in group treated with compound/number of stained nuclei in group treated with Forskolin)×100”. Based on the treatment results, substances inhibiting intracellular tau protein aggregation were selected from a series of candidate groups showing a tau protein aggregation inhibition rate of 70% or more and cell viability of 100% at a compound treatment concentration of 10 μM or more. […]

Compound	CYP2D6 coenzyme activity (%) with respect to control group not treated (CYP2D6)	CYP2C19 coenzyme activity (%) with respect to control group not treated (CYP2C19)	CYP1A2 coenzyme activity (%) with respect to control group not treated (CYP1A2)	Cell viability (% @10 μM) (Tau-BiFC cells)
Cn1ccc2ccc(NN=C(C#N)C#N)cc2c1=O [Compound 2, (2-methyl-1-oxo-1,2-dihydroisoquinolin-7-yl)carbonohydrazonoyl dicyanide]	94.3%	79.2%	43.5%	57.5%
Cn1c(=O)sc2cc(NN=C(C#N)C#N)ccc21 [Compound 14, (3-methyl-2-oxo-2,3-dihydrobenzo[d]thiazol-6-yl)carbonohydrazonoyl dicyanide]	85.6%	68.8%	81.6%	129.1%
CC(C)n1c(=O)n(C(C)C)c2cc(NN=C(C#N)C#N)ccc21 [Compound 23, (1,3-diisopropyl-2-oxo-2,3-dihydro-1H-benzo[d]imidazol-5-yl)carbonohydrazonoyl dicyanide]	95.3%	69.7%	83.2%	117%
N#CC(C#N)=NNc1ccc2[nH]c(=O)sc2c1 [Compound 13, (2-oxo-2,3-dihydrobenzo[d]thiazol-6-yl)carbonohydrazonoyl dicyanide]	99.4%	55.2%	79%	115.8%
CC(C)n1c(=O)oc2ccc(NN=C(C#N)C#N)cc21 [Compound 29, (3-isopropyl-2-oxo-2,3-dihydrobenzo[d]oxazol-5-yl)carbonohydrazonoyl dicyanide]	94.2%	91.3%	97.3%	133%
CC(C)n1c(=O)n(C)c2ccc(NN=C(C#N)C#N)cc21 [Compound 36, (3-isopropyl-1-methyl-2-oxo-2,3-dihydro-1H-benzo[d]imidazol-5-yl)carbonohydrazonoyl dicyanide]	>100%	89.5%	93.7%	104%
CC(C)n1c(=O)n(C2CC2)c2ncc(NN=C(C#N)C#N)cc21 [Compound 53, (3-cyclopropyl-1-isopropyl-2-oxo-2,3-dihydro-1H-imidazo[4,5-b]pyridin-6-yl)carbonohydrazonoyl dicyanide]	>100%	>100%	>100%	125%
CC(C)n1ccc2c(NN=C(C#N)C#N)cccc2c1=O [Compound 6, (2-isopropyl-1-oxo-1,2-dihydroisoquinolin-5-yl)carbonohydrazonoyl dicyanide]	85.4%	37.8%	68.3%	118.1%
COc1cc(NN=C(C#N)C#N)cc2c1n(C)c(=O)n2C [Compound 33, (7-methoxy-1,3-dimethyl-2-oxo-2,3-dihydro-1H-benzo[d]imidazol-5-yl)carbonohydrazonoyl dicyanide]	>100%	>100%	37.8%	114%
N#CC(C#N)=NNc1ccc2[nH]c(=O)oc2c1 [Compound 15, (2-oxo-2,3-dihydrobenzo[d]oxazol-6-yl)carbonohydrazonoyl dicyanide]	>100%	90.3%	87.3%	127.7%
